Assay results: US20230365537A1, “POLO LIKE KINASE 4 INHIBITORS” (ORIC Pharmaceuticals, Inc., priority 2021, published 2023)
pIC50: −log10 of the molar value.

Tests used:
human recombinant PLK4 = human recombinant PLK4 (Homo sapiens (Human), UniProt O00444); experiment: PLK4 Biochemical Assay (ADP-Glo); conditions: 0.5 nM PLK4, 8.0 µM ATP, 4.7 µM MBP, 6 hours at RT
Summary of the method: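 Recombinant human PLK4 (added at 1.0 nM) was preincubated 15 min at RT with compound in 50 mM HEPES pH 7.5, 10 mM MgCl2, 1 mM EGTA, 1 mM DTT, 0.01% Brij-35, 0.01% BSA. ADP formed was detected by ADP-Glo luminescence (40 min ATP depletion, 30 min detection). IC50 came from a four-parameter fit.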

CHP-134 cells = experiment: CHP134 CellTiter-Glo (CTG) Assay; type: cell-based; conditions: Homo sapiens, CHP-134, 120 h, 5 days, viable cells by CellTiter-Glo
Summary of the method: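 CHP-134 cells seeded at 200 cells/well for 16 h, then given nine 1:3 serial dilutions in quadruplicate at 37° C, 5% CO2. Viable cells measured by CellTiter-Glo luminescence after 5 days; IC50 calculated from curves.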

[1] = biological target: human recombinant Aurora A (Homo sapiens (Human), UniProt O14965); experiment: Aurora A Kinase Biochemical Assay (ADP-Glo); conditions: ratio of Aurora A IC50 to PLK4 IC50 (selectivity)
[2] = biological target: human recombinant Aurora B (Homo sapiens (Human), UniProt Q96GD4); experiment: Aurora B Kinase Biochemical Assay (ADP-Glo); conditions: ratio of Aurora B IC50 to PLK4 IC50 (selectivity)
Summary of the method: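 Recombinant human Aurora B (20 nM in pH 7.5 HEPES buffer with MgCl2, EGTA, DTT, Brij-35, BSA) preincubated with compound 15 min at RT. ADP formed quantified by ADP-Glo luminescence after ATP depletion (40 min) and detection (30 min). IC50 from four-parameter non-linear regression.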

Chain of human recombinant Aurora A (O14965 whole entry): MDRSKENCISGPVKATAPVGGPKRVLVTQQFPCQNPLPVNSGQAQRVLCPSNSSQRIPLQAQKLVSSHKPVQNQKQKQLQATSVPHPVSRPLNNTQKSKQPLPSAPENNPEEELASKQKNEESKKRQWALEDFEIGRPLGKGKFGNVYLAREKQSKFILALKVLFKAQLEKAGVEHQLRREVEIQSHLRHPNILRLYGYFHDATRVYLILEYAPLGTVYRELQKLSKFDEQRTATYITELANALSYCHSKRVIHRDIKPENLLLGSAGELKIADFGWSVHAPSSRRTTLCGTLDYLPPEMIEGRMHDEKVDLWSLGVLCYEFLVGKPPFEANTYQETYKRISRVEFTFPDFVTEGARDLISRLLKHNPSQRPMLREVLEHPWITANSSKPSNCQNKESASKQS
Chain of human recombinant PLK4 (O00444 whole entry): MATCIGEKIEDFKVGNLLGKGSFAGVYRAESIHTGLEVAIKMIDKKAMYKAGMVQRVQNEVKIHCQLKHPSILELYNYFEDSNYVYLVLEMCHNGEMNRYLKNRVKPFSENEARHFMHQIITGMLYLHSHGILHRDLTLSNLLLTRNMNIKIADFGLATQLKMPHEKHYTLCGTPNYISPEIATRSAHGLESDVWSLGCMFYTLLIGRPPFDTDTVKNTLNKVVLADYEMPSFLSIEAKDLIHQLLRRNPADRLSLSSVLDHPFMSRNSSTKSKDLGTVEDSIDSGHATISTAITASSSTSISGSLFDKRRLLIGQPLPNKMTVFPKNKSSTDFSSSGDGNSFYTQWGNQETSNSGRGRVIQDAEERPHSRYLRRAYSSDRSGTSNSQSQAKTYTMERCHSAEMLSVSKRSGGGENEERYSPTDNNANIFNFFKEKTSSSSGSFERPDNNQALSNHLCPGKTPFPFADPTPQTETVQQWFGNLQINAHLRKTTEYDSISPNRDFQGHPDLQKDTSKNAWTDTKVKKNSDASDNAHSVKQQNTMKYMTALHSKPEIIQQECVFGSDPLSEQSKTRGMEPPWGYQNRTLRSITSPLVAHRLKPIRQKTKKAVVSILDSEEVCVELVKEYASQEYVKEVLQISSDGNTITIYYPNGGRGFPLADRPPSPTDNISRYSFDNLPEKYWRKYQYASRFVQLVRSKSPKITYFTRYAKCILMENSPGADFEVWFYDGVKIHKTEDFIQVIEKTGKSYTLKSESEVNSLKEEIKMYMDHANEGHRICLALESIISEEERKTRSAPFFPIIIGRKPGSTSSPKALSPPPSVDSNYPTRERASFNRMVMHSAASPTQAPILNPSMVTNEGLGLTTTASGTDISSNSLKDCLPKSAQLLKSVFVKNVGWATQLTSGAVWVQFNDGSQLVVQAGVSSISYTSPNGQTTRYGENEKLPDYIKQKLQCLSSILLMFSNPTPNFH
Chain of human recombinant Aurora B (Q96GD4 whole entry): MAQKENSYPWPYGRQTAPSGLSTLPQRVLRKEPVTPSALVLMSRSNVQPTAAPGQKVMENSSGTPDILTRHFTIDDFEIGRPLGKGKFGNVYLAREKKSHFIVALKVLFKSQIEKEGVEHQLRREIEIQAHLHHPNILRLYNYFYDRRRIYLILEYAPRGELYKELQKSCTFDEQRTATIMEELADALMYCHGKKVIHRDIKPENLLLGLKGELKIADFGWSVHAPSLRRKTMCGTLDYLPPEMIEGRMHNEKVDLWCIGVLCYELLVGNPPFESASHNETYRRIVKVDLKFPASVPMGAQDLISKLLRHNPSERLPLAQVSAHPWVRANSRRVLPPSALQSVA

pIC50 (human recombinant PLK4)	[Aurora A IC50 (nM)]/[PLK4 IC50 (nM)] [1]	[Aurora B IC50 (nM)]/[PLK4 IC50 (nM)] [2]	SMILES	pIC50 (CHP-134 cells)
8.68	986.6539	53.57	COc1ccc2c(c1)[C@]1(C[C@H]1c1ccc3c(Nc4ccc(N5CCCC5=O)nc4OC)n[nH]c3c1)C(=O)N2 [Example 215, (1R,2S)-5′-methoxy-2-(3-{[2-methoxy-6-(2-oxopyrrolidin-1-yl)pyridin-3-yl]amino}-1H-indazol-6-yl)spiro[cyclopropane-1,3′-indol]-2′(1′H)-one]	6.72
8.57	7712	18601.19048	COc1ccc2c(c1)[C@]1(C[C@H]1c1ccc3c(Nc4cc(S(=O)(=O)N5CCOCC5)ccc4OC)n[nH]c3c1)C(=O)N2 [Example 216, (1R,2S)-5′-methoxy-2-{3-[2-methoxy-5-(morpholine-4-sulfonyl)anilino]-1H-indazol-6-yl}spiro[cyclopropane-1,3′-indol]-2′(1′H)-one]	6.12
8.92	416.7367	170.9840	COc1ccc2c(c1)[C@]1(C[C@H]1c1ccc3c(Nc4nc5cccnc5cc4OC)n[nH]c3c1)C(=O)N2 [Example 217, (1R,2S)-5′-methoxy-2-{3-[(3-methoxy-1,5-naphthyridin-2-yl)amino]-1H-indazol-6-yl}spiro[cyclopropane-1,3′-indol]-2′(1′H)-one]	6.35
9.02	806.5968	70.8586	COc1ccc2c(c1)[C@]1(C[C@H]1c1ccc3c(Nc4ccc(C(=O)N(C)OC)nc4OC)n[nH]c3c1)C(=O)N2 [Example 218, N,6-dimethoxy-5-({6-[(1R,2S)-5′-methoxy-2′-oxo-1′,2′-dihydrospiro[cyclopropane-1,3′-indol]-2-yl]-1H-indazol-3-yl}amino)-N-methylpyridine-2-carboxamide]	7.13
8.60	763.5782	64.2571	COc1ccc2c(c1)[C@]1(C[C@H]1c1ccc3c(Nc4ccc(C(=O)NNC(C)C)nc4OC)n[nH]c3c1)C(=O)N2 [Example 219, 6-methoxy-5-({6-[(1R,2S)-5′-methoxy-2′-oxo-1′,2′-dihydrospiro[cyclopropane-1,3′-indol]-2-yl]-1H-indazol-3-yl}amino)-N′-(propan-2-yl)pyridine-2-carbohydrazide]	6.29
8.87	446.1368	546.4311	COc1ccc2c(c1)[C@]1(C[C@H]1c1ccc3c(Nc4ccc(S(=O)(=O)N(C)C)nc4OC)n[nH]c3c1)C(=O)N2 [Example 222, 6-methoxy-5-({6-[(1R,2S)-5′-methoxy-2′-oxo-1′,2′-dihydrospiro[cyclopropane-1,3′-indol]-2-yl]-1H-indazol-3-yl}amino)-N,N-dimethylpyridine-2-sulfonamide]	6.34
8.64	1004.7743	445.3125	CCOc1nc(S(=O)(=O)N(C)C)ccc1Nc1n[nH]c2cc([C@@H]3C[C@@]34C(=O)Nc3ccc(OC)cc34)ccc12 [Example 223, 6-ethoxy-5-({6-[(1R,2S)-5′-methoxy-2′-oxo-1′,2′-dihydrospiro[cyclopropane-1,3′-indol]-2-yl]-1H-indazol-3-yl}amino)-N,N-dimethylpyridine-2-sulfonamide]	6.79
8.32	2759.6376	474.6155	COc1ccc2c(c1)[C@]1(C[C@H]1c1ccc3c(Nc4cc(C(C)(C)O)cnc4OC)n[nH]c3c1)C(=O)N2 [Example 226, (1R,2S)-2-(3-{[5-(2-hydroxypropan-2-yl)-2-melhoxypyridin-3-yl]amino}-1H-indazol-6-yl)-5′-methoxyspiro[cyclopropane-1,3′-indol]-2′(1′H)-one]	5.67
8.87	813.6599	340.4602	CCS(=O)(=O)c1cnc(Nc2n[nH]c3cc([C@@H]4C[C@@]45C(=O)Nc4ccc(OC)cc45)ccc23)c(OC)c1 [Example 228, (1R,2S)-2-(3-{[5-(Ethanesulfonyl)-3-methoxypyridin-2-yl]amino}-1H-indazol-6-yl)-5′-methoxyspiro[cyclopropane-1,3′-indol]-2′(1′H)-one]	6.74
8.61	12432.2103	213.4346	COc1ccc2c(c1)[C@]1(C[C@H]1c1ccc3c(Nc4ccc(C(=O)NCC5CC5)nc4OC)n[nH]c3c1)C(=O)N2 [Example 230, N-(cyclopropylmethyl)-6-methoxy-5-({6-[(1R,2S)-5′-methoxy-2′-oxo-1′,2′-dihydrospiro[cyclopropane-1,3′-indol]-2-yl]-1H-indazol-3-yl}amino)pyridine-2-carboxamide]	6.40
8.81	4955.7692	316.7307	COc1ccc2c(c1)[C@]1(C[C@H]1c1ccc3c(Nc4ccc(C(=O)NC(C)C)nc4OC)n[nH]c3c1)C(=O)N2 [Example 231, 6-methoxy-5-({6-[(1R,2S)-5′-methoxy-2′-oxo-1′,2′-dihydrospiro[cyclopropane-1,3′-indol]-2-yl]-1H-indazol-3-yl}amino)-N-(propan-2-yl)pyridine-2-carboxamide]	6.40
8.45	332.3068	107.2788	COc1ccc2c(c1)[C@]1(C[C@H]1c1ccc3c(Nc4nn(C)c(=O)cc4OC)n[nH]c3c1)C(=O)N2 [Example 233, (1R,2S)-5′-methoxy-2-{3-[(4-methoxy-1-methyl-6-oxo-1,6-dihydropyridazin-3-yl)amino]-1H-indazol-6-yl)spiro[cyclopropane-1,3′-indol]-2′(1′H)-one]	5.32
8.64	608.9799	831.7349	COc1ccc2c(c1)[C@]1(C[C@H]1c1ccc3c(Nc4cc(-c5ncco5)cnc4OC)n[nH]c3c1)C(=O)N2 [Example 234, (1R,2S)-5′-Methoxy-2-(3-{[2-methoxy-5-(1,3-oxazol-2-yl)pyridin-3-yl]amino}-1H-indazol-6-yl)spiro[cyclopropane-1,3′-indol]-2′(1′H)-one]	6.56
8.87	536.1	582.2189	COc1ccc2c(c1)[C@]1(C[C@H]1c1ccc3c(Nc4cc(C)c(C(=O)N(C)C)nc4OC)n[nH]c3c1)C(=O)N2 [Example 238, 6-methoxy-5-({6-[(1R,2S)-5′-methoxy-2′-oxo-1′,2′-dihydrospiro[cyclopropane-1,3′-indol]-2-yl]-1H-indazol-3-yl}amino)-N,N,3-trimethylpyridine-2-carboxamide]	6.87
8.60	2066.9875	253.4697	COc1ccc2c(c1)[C@]1(C[C@H]1c1ccc3c(Nc4cnc(S(C)(=O)=O)cc4OC)n[nH]c3c1)C(=O)N2 [Example 241, (1R,2S)-2-(3-{[6-(methanesulfonyl)-4-methoxypyridin-3-yl]amino}-1H-indazol-6-yl)-5′-methoxyspiro[cyclopropane-1,3′-indol]-2′(1′H)-one]	5.96
8.19	307.7159	129.0381	COc1ccc2c(c1)[C@]1(C[C@H]1c1ccc3c(Nc4ncc(S(C)(=O)=O)nc4OC)n[nH]c3c1)C(=O)N2 [Example 242, (1R,2S)-2-(3-{[5-(methanesulfonyl)-3-methoxypyrazin-2-yl]amino}-1H-indazol-6-yl)-5′-methoxyspiro[cyclopropane-1,3′-indol]-2′(1′H)-one]	5.26
8.94	479.1122	164.5778	COc1ccc2c(c1)[C@]1(C[C@H]1c1ccc3c(Nc4ccc(C(=O)N(C5CC5)C5CC5)nc4OC)n[nH]c3c1)C(=O)N2 [Example 243, N,N-dicyclopropyl-6-methoxy-5-({6-[(1R,2S)-5′-methoxy-2′-oxo-1′,2′-dihydrospiro[cyclopropane-1,3′-indol]-2-yl]-1H-indazol-3-yl}amino)pyridine-2-carboxamide]	6.73

SMILES	pIC50 (human recombinant PLK4)	[Aurora A IC50 (nM)]/[PLK4 IC50 (nM)] [1]	[Aurora B IC50 (nM)]/[PLK4 IC50 (nM)] [2]	pIC50 (CHP-134 cells)
COc1ccc2c(c1)[C@]1(C[C@H]1c1ccc3c(Nc4ccc(C(=O)N5C6CCC5COC6)nc4OC)n[nH]c3c1)C(=O)N2 [Example 232, (1R,2S)-5′-methoxy-2-(3-{[2-methoxy-6-(3-oxa-8-azabicyclo[3.2.1]octane-8-carbonyl)pyridin-3-yl]amino}-1H-indazol-6-yl)spiro[cyclopropane-1,3′-indol]-2′(1′H)-one]	8.99	651.7909	105.5179	6.85
